In patent US20140128349A1 (Indiana University School of Medicine, priority 2012, published 2014):
Entries after “also recorded” stand apart in the source; their conditions may differ.

Tests used:
[1] = EDL muscle specific force in mice with PC-3 prostate cancer bone metastases; type: in vivo; conditions: hypogonadal mice with PC-3 prostate cancer metastatic to bone
Protocol: (§1) In embodiments B and C are shown decreased skeletal muscle cross-sectional area in tumor-bearing mice determined by Micro-CT as described herein. In embodiments D and E are shown decreased body weight (D) and decreased Grip strength (E) in PC-3 tumor bearing mice. […] In embodiment J is shown that RyR1 is oxidized and there is decreased calstabin1 in the RyR1 complex from, skeletal muscle (EDL) from mice with metastatic prostate cancer. RyR1 was immunoprecipitated from 250 μg of EDL homogenate using an anti-RyR antibody (4 μg 5029 Ab), and the immunoprecipitates were separated on SDS-PAGE gels (6% for RyR. 15% for Calstabin). All immunoblots were developed and quantified with the Odyssey system (LI-COR, Inc., Lincoln, Nebr.) using IR labeled anti-mouse and anti-Rabbit IgG (1:10,000 dilution) secondary antibodies. Immunoblots developed using anti-RyR (clone 34C, 1:5,000), anti-Cys-NO (1:1000, Sigma, St. Louis, Mo.), anti-DNP (to determine RyR1 oxidation. 1:250), and anticalstabin (1:2500). […] Quantification of immunoblots showing the relative nitrotyrosine/SERCA for each group of EDLs tested. *p<0.01 compared to non-cancer controls as analyzed by ANOVA. […]
S107 is administered in the drinking water at a dose of 50 mg/kg/d, water consumption is monitored and plasma drug levels determined. […]

RyR1 [2] = assay: RyR1 oxidation/nitrosylation/calstabin1 immunoblot of EDL from PC-3 tumor bearing mice; type: in vivo; conditions: mice with prostate cancer metastatic to bone
Protocol: as §1, with “antibodies.” for “antibodies. Immunoblots developed using anti-RyR (clone 34C, 1:5,000), anti-Cys-NO (1:1000, Sigma, St. Louis, Mo.), anti-DNP (to determine RyR1 oxidation. 1:250), and anticalstabin (1:2500).”
Quantification of RyR1 skeletal channel nitrosylation, oxidation and phosphorylation by protein kinase A (PKA) are performed as described (Bellinger et al., 2009; Bellinger et al., 2008b).
Quantification of depletion of the channel stabilizing subunit calstabin 1 (FKBP12) from skeletal RyR1 by immunoprecipitation techniques are performed as described (Marx et al., 2000). […]

PC-3 bone metastases = assay: PC-3 prostate cancer bone metastases in mice; type: in vivo; conditions: osteolytic model; X-ray, osteolytic lesion area, survival
Text: For all mouse experiments, N=15 for each group of mice for tumors inoculated in the left cardiac ventricle (PC-3) or intratibially (LuCAP23.1) based on power analysis detailed below. Male nude mice are housed in laminar flow isolated hoods with water supplemented with vitamin K and autoclaved mouse chow provided ad libitum. Cells are introduced into mice at 4 wks of age. Animals are anesthetized with ketamine/xylazine and positioned ventral side up.
Multiple modalities of bone imaging including X-ray and μCT are used to longitudinally monitor the bone lesions and confirmed by histology and quantitative histomorphometry as previously described (Dunn et al., 2009; Guise et al., 1996b; Yin et al., 1999). Muscle mass are followed serially in vivo using the Piximus II system (Wiren et al., 2011) and microCT (Manske et al., 2011).

[3] = system: LuCaP 23.1 human prostate cancer osteoblastic xenograft; assay: LuCaP 23.1 osteoblastic prostate cancer xenograft in tibia of nude mice; type: in vivo
Text: Four-week old, male nude mice were inoculated into the tibia with LuCaP 23.1 human prostate cancer osteoblastic xenograft (n=14-15/group).

[4] = co-administration of S107 and SD208 in tumor bearing mice; type: in vivo; conditions: S107 in drinking water about 50 mg/kg/day
Protocol: For example, administering the TGFbeta kinase inhibitor SD208 prevents oxidation of RyR1 and SERCA in skeletal muscles from tumor bearing mice, thus increasing muscle specific force production and grip strength in these mice. The co-administration of S107 further inhibits SR Ca^2+ leak by reducing the stress-induced depletion of calstabin from the RyR channel complex. […] Thus, when these are co-administered, the benzothiazepine derivative is administered at a dosage of between about 20 mg/kg/day and about 100 mg/kg/day and the inhibitor is administered in an amount of about 10 mg/kg/day and about 50 mg/kg/day. The ratio of the amount of benzothiazepine derivative to inhibitor in the co-administered formulation should be between 1:1 to 5:1 and preferably 1.3:1 to 2.5:1. Also, the benzothiazepine and inhibitor can be administered at the same time in a single formulation or sequentially if each is present in a separate formulation.

human melanoma cells = assay: Hfg treatment of human melanoma cells; type: cell-based
Text: (§2) TGFbeta derived from bone fuels melanoma bone metastasis by inducing tumor secretion of pro-metastatic factors that act on bone cells to change the skeletal microenvironment. […] Hfg is active orally and by intraperitoneal injection, and it has completed Phase I clinical trials in cancer patients. It suppresses the phosphorylation and activation of Smad2 and Smad3 by inducting of Smad7. Overexpression of inhibitory Smad7 has been associated with a reduction on invasive capacity in vitro and anchorage-independent growth, and delays subcutaneous tumor growth in nude mice. The present inventors have shown that Smad7 overexpression decreased melanoma bone metastasis, thus is useful for treating and/or preventing muscle weakness and atrophy as well as other muscle related side effects in cancer patients.

1205Lu melanoma cells = assay: 1205Lu melanoma metastasis in nude mice; type: in vivo
Text: as §2

[5] = patients with prostate cancer bone metastases, regardless of radiographic phenotype; cited from earlier work
RyR [6] = assay: S107 blood brain barrier crossing and calstabin binding to RyR in brain in vivo
Text: Data from heart and soleus muscle are also illustrated.
Cardiac muscle RyR2 is PKA hyperphosphorylated, oxidized, nitrosylated and depleted of calstabin2 in animal models of heart failure (HF) and in the hearts of patients with HF. […] Compounds of formula I-o, which share a common structure with S107, are also expected to have similar activities. This advantage is expected to enhance the ability of the TGFbeta inhibitor to be available to act upon most body tissues for improved effectiveness.

RyR2 = conditions: animals; cited from earlier work
RyR [7] = conditions: cited from earlier work
RyR1 [8] = biological target: T1, RyR1 (Mus musculus, UniProt E9PZQ0); design: from tissue; host or cells: skeletal muscle of mdx mice; conditions: mdx model of DMD; cited from earlier work
T1 sequence (E9PZQ0 whole entry): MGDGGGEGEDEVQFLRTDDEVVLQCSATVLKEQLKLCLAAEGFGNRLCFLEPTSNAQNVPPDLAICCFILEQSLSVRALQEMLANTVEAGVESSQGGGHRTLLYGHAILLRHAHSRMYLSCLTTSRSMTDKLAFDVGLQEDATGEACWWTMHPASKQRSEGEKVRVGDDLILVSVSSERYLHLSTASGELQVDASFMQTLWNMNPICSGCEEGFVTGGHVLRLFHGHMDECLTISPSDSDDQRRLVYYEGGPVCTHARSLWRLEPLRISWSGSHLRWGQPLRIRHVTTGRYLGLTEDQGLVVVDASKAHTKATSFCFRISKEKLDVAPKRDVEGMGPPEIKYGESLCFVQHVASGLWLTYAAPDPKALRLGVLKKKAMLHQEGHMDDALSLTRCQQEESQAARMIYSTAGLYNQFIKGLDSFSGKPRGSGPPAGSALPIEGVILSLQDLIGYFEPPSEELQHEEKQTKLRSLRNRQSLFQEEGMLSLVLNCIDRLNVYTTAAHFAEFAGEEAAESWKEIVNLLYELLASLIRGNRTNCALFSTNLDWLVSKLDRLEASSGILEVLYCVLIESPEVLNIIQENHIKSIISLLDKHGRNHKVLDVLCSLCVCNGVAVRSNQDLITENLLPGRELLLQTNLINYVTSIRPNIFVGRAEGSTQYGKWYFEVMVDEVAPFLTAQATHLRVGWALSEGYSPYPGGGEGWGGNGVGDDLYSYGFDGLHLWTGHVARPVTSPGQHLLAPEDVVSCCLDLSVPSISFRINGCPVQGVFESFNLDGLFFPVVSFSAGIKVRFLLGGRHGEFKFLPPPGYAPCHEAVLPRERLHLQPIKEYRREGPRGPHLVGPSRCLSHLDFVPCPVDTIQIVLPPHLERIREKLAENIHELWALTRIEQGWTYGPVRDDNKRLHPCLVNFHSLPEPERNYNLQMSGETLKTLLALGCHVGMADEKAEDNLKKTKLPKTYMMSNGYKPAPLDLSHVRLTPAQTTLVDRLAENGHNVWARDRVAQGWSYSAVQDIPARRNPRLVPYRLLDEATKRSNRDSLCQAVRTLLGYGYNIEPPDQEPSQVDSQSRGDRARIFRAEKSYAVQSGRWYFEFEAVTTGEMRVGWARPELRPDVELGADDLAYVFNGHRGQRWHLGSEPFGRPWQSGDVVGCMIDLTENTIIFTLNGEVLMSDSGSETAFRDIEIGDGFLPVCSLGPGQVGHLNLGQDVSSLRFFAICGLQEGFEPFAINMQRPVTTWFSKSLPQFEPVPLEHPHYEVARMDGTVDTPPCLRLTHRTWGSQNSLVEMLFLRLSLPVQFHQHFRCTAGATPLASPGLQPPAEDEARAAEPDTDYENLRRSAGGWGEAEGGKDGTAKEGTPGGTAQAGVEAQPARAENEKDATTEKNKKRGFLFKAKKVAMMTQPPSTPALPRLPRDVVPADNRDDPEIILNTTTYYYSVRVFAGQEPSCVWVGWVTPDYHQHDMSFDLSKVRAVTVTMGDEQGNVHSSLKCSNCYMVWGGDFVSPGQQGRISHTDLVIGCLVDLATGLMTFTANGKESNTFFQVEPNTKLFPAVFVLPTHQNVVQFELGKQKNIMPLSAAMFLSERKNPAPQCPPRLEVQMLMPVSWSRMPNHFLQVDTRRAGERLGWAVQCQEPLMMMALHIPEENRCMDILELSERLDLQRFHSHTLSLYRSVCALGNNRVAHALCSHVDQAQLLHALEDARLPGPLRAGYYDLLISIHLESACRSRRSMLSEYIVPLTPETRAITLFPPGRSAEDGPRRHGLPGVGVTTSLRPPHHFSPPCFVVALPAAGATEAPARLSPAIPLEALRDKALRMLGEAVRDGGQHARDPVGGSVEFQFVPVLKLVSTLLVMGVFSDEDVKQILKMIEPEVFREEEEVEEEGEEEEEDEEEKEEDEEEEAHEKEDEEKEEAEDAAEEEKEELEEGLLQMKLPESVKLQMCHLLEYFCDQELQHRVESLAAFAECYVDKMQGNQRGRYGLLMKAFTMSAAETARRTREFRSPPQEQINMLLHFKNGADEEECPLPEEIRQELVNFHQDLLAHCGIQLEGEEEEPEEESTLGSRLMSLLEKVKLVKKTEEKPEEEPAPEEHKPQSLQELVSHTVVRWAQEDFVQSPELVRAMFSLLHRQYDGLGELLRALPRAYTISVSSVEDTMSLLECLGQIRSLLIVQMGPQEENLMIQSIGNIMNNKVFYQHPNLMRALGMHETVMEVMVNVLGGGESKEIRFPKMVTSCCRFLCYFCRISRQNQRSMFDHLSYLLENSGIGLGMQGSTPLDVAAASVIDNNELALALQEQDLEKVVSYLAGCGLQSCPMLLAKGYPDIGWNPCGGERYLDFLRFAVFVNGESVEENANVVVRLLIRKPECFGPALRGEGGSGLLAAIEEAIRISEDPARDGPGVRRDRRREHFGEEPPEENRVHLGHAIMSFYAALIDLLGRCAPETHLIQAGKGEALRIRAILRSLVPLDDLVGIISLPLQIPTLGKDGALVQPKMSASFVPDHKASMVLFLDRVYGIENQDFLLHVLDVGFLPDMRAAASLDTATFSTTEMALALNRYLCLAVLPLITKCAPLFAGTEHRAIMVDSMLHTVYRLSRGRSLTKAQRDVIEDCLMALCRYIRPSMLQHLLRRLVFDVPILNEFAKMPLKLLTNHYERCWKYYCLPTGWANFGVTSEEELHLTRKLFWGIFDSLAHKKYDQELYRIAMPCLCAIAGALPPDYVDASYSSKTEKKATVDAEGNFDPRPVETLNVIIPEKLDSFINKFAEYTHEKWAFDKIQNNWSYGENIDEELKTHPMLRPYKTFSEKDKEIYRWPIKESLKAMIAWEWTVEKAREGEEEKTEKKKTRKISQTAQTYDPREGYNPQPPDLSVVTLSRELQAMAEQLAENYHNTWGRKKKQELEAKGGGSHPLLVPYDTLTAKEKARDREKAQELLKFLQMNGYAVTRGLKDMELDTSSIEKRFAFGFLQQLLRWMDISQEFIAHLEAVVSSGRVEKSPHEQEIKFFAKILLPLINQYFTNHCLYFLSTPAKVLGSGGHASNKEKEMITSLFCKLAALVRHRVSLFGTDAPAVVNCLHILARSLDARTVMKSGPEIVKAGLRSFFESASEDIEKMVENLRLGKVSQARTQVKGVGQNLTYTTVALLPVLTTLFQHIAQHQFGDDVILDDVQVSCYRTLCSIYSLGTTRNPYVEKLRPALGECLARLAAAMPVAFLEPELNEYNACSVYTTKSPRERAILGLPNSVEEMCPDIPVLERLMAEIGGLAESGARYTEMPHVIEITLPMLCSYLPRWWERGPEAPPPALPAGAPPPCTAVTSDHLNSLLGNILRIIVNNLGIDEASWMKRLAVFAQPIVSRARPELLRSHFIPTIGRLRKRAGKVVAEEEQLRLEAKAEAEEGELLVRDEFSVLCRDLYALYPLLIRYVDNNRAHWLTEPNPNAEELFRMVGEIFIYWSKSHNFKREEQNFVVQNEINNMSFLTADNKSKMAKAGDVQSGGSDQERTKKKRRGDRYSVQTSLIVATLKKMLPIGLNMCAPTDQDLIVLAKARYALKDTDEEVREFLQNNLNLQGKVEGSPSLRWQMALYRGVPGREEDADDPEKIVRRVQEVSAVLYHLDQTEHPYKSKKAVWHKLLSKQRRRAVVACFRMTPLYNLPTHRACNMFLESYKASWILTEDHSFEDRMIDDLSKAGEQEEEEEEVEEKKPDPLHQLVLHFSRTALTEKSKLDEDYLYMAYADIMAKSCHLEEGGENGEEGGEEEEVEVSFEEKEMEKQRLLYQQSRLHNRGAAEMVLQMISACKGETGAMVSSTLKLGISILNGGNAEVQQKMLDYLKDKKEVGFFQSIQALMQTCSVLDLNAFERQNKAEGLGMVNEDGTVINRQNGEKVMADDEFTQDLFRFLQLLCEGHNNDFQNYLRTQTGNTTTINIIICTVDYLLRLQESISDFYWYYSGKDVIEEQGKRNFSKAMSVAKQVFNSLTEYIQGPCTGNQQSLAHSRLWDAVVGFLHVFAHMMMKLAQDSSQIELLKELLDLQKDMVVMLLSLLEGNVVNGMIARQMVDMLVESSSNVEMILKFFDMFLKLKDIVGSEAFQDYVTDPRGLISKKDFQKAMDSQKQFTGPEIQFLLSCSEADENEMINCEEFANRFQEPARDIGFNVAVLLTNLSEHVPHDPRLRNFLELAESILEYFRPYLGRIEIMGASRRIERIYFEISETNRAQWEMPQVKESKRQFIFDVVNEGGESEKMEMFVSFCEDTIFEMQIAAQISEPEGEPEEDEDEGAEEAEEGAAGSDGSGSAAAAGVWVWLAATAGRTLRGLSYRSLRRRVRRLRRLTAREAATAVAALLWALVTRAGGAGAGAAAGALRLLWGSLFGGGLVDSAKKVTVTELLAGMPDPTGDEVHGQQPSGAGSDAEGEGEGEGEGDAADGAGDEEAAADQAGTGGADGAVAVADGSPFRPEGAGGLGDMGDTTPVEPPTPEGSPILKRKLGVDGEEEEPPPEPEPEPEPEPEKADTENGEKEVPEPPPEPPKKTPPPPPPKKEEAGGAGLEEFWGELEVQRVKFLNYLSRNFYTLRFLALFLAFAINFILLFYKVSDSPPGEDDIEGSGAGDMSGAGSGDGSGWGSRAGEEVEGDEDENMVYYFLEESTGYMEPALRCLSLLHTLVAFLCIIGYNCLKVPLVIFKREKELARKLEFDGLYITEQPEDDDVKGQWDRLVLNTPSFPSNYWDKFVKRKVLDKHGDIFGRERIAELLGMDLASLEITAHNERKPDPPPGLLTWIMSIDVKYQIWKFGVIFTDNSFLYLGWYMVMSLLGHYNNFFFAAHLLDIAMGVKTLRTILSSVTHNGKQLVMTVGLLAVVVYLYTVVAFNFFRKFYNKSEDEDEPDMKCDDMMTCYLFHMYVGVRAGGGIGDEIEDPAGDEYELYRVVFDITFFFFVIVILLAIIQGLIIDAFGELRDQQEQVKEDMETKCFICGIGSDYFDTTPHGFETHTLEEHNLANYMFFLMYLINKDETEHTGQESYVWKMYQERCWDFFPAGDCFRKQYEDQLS
T1 sequence (P26883 2-108 partner limits assumed): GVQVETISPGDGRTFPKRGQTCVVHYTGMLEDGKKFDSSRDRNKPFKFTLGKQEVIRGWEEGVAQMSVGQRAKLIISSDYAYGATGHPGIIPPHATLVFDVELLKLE

RyR1 [9] = biological target: T1, RyR1; design: in a mouse model of aging, oxidation of skeletal muscle RyR1 causes depletion of the stabilizing subunit calstabin1 (FKBP12); from tissue; host or cells: skeletal muscle of aged (2 yr old) mice; conditions: mouse model of aging; cited from earlier work

Fc1ccc(Cl)cc1-c1nc(Nc2ccncc2)c2nccnc2n1 [SD-208]
muscle (EDL) specific force production [1]: improved muscle specific force production | skeletal muscle RyR1 oxidation, nitrosylation and depletion of calstabin 1 (RyR1 [2]): prevented oxidation/nitrosylation/calstabin1 depletion from RyR1; also recorded: prevented oxidation of RyR1 | prevention of PC-3 bone metastases (PC-3 bone metastases): highly effective to prevent bone metastases due to PC-3; also recorded: prevents PC-3 bone metastases | bone formation and tumor growth in LuCaP 23.1 ([3]; 50 or 150 mg/kg/day po, from 12 weeks post inoculation): does not increase bone formation or tumor growth | efficacy against LuCAP23.1 bone metastases ([3]; osteoblastic model): not effective against LuCAP23.1 bone metastases | effect of oral SD208 about 30 mg/kg/day co-administered with S107 [4]: same effects as administering SD208 at a dosage of about 60 mg/kg/day

O=C(CC1NCCCC1O)Cn1cnc2cc(Br)c(Cl)cc2c1=O (stereo not shown) [Halofuginone]
cell proliferation (human melanoma cells): inhibited cell proliferation | expression of TGFbeta target genes (PTHrP, CTGF, CXCR4, IL11) (human melanoma cells): reducing expression of TGFbeta target genes | osteolysis in mice with established bone metastasis (1205Lu melanoma cells; assessed by radiography, vs placebo): significantly less osteolysis than mice receiving placebo | bone metastasis, preventive protocol (1205Lu melanoma cells; nude mice inoculated with 1205Lu melanoma cells): inhibited bone metastasis

denosumab: inhibitor of bone resorption
skeletal morbidity [5]: reduce skeletal morbidity

COc1ccc2c(c1)CN(C)CCS2 [S107]
crossing of the blood brain barrier (RyR [6]): crosses the blood brain barrier | binding of calstabin to RyR in the brain (RyR [6]; mid-section and cerebellum): enhances binding of calstabin to a RyR in the brain | HF progression (RyR2): inhibits HF progression | specificity (RyR [7]): RyR specific | grip strength (RyR1 [8]): improves grip strength | muscle damage (RyR1 [8]): reduced muscle damage | SR Ca2+ leak (Ca2+ sparks, channel open probability) (RyR1 [9]): reduced SR Ca^2+ leak | exercise capacity (RyR1 [9]): improved | muscle force production (RyR1 [9]): improved muscle force production | oxidation induced depletion of calstabin1 from RyR1 (RyR1 [9]): prevented oxidation induced depletion of calstabin1 from RyR1 | tetanic [Ca2+] (RyR1 [9]): increased tetanic [Ca^2+]
